Results taken from patent publication US9492447B2, “Cannabinoid receptor modulators” (Arena Pharmaceuticals, Inc., priority 2011, dated 2016).
Where “and” joins values, the source holds several entries; their conditions need not be identical. Identical values can stand only once.

Tests used:
[1] = target: T1, human CB2 receptor (Homo sapiens, UniProt P34972); test: PathHunter β-arrestin assay, CB2 assay; format: cell-based
T1 construct: CB2 was cloned into the pCMV-PK vector; 93-0164 (CHO-K1 EA-Arrestin parental cell line)
T1 sequence (P34972 whole entry): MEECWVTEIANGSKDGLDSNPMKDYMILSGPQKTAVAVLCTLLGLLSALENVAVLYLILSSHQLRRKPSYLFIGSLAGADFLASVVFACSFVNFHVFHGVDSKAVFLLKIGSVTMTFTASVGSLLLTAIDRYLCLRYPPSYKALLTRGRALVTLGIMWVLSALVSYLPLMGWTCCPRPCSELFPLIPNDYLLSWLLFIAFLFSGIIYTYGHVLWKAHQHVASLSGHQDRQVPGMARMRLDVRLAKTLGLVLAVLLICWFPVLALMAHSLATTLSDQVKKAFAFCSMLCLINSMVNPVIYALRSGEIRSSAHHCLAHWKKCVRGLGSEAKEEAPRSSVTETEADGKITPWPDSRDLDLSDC

[2] = tested on: STZ-induced PDPN model, diabetic and allodynic rats; test: Streptozotocin-induced painful diabetic peripheral neuropathy (PDPN) model; format: in vivo, rat; conditions: 10 mg/kg orally in 0.5% methylcellulose; 1, 4 and 6 hours post-dosing; FIG. 13, 14
Description: Male Sprague-Dawley rats were injected intraperitoneally with 50 mg/kg of streptozotocin (STZ) in sodium citrate buffer. 10% sucrose water was provided ad libitum for the first 48 hours post-STZ followed by regular drinking water. Rats were monitored once weekly for blood glucose levels and body weights. Development of tactile allodynia over time was analyzed using Von Frey filaments and a 50% withdrawal threshold was determined using Dixon's up-down procedure. […] Tactile allodynia was evaluated at 1, 4 and 6 hours post-dosing.

[3] = tested on: acute and chronic pain from chemical, mechanical, and thermal pain stimuli; conditions: animal studies; cited from earlier work
[4] = Dynamic moisture-sorption (DMS) analysis; format: physicochemical
Description: A dynamic moisture-sorption (DMS) study was conducted using a dynamic moisture-sorption analyzer, VTI Corporation, SGA-100. The instrument was calibrated using polyvinyl pyrrolidone (PVP) and NaCl. Samples were prepared for DMS analysis by placing 5 mg to 20 mg of a sample in a tared sample holder. The sample was placed on the hang-down wire of the VTI balance. A drying step was run, typically at 40° C. and 0.5-1% RH for 1 h. The isotherm temperature is 25° C. Defined % RH holds typically ranged from 10% RH to 90% RH, with intervals of 10 to 20% RH. A % weight change smaller than 0.010% over 10 min, or up to 2 h, whichever occurred first, was required before continuing to the next % RH hold. The water content of the sample equilibrated as described above was determined at each % RH hold.

[5] = tested on: capsaicin-induced hyperalgesia and allodynia; conditions: topical administration, humans; cited from earlier work
[6] = tested on: rats following ligation of spinal nerves; conditions: cited from earlier work
[7] = tested on: Monosodium iodoacetate-induced osteoarthritis rats; test: Combination of Compound 699 and morphine in MIA-induced osteoarthritis pain, Von Frey test; format: in vivo, rat; conditions: Von Frey one hour post-dosing
[8] = tested on: carrageenan, capsaicin, and formalin models of inflammatory pain in rodents; conditions: systemic delivery; cited from earlier work
[9] = tested on: CB1; conditions: exogenous administration of a CB1 agonist; cited from earlier work
Chain of CB1 (P47746 whole entry): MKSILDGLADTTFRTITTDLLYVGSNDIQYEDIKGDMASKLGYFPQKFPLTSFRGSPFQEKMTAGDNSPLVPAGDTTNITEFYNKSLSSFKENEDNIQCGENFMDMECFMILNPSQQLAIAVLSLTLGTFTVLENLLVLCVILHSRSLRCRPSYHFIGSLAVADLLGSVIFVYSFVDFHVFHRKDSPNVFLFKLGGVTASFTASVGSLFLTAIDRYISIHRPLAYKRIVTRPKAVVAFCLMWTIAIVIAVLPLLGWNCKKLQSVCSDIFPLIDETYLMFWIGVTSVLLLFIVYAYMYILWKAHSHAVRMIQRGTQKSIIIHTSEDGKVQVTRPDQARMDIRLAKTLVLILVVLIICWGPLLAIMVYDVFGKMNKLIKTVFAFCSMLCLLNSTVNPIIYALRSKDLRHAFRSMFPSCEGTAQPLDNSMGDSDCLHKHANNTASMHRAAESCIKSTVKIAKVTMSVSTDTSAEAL

## O=C(NC1(C(F)(F)F)CCC1)c1nn(-c2cnccn2)c2c1C[C@@H]1C[C@H]21 [Compound 926, (1aS,5aS)-2-Pyrazin-2-yl-1a,2,5,5a-tetrahydro-1H-2,3-diaza-cyclopropa[a]pentalene-4-carboxylic Acid (1-Trifluoromethyl-cyclobutyl)-amide]
[1]
  EC50: 4.1 nM

## CC(C)(NC(=O)c1nn(-c2c[n+]([O-])ccn2)c2c1C[C@@H]1C[C@H]21)C(F)(F)F [Compound 919, (1aS,5aS)-2-(4-Oxy-pyrazin-2-yl)-1a,2,5,5a-tetrahydro-1H-2,3-diaza-cyclopropa[a]pentalene-4-carboxylic Acid (2,2,2-Trifluoro-1,1-dimethyl-ethyl)-amide]
[2]
  analgesic efficacy, tactile allodynia (50% withdrawal threshold): robust and sustained analgesic efficacy over 6 hours
[1]
  EC50: 2.8 nM

## CCCCCCC(C)(C)c1ccc([C@@H]2C[C@H](O)CC[C@H]2CCCO)c(O)c1 [CP55,940]
[3]
  effect against acute and chronic pain: effective against acute and chronic pain

## CC(C)(C)[C@@H](CO)NC(=O)c1nn(-c2c[n+]([O-])ccn2)c2c1C[C@@H]1C[C@H]21 [Compound 699 (Anhydrous Form), (1aS,5aS)-2-(4-Oxy-pyrazin-2-yl)-1a,2,5,5a-tetrahydro-1H-2,3-diaza-cyclopropa[a]pentalene-4-carboxylic Acid ((S)-1-Hydroxymethyl-2,2-dimethyl-propyl)-amide]
[4]; adsorption, sample RH 29.94 %, 25.32
  Weight (% Change): 0.151%
[4]; adsorption, sample RH 49.86 %, 25.31
  Weight (% Change): 0.282%
[4]; adsorption, sample RH 69.77 %, 25.3
  Weight (% Change): 0.482%
[4]; adsorption, sample RH 79.70 %, 25.29
  Weight (% Change): 0.581%
[4]; adsorption, sample RH 89.72 %, 25.3
  Weight (% Change): 0.762%
[4]; desorption, sample RH 10.06 %, 25.29
  Weight (% Change): 0.080%
[4]; desorption, sample RH 29.99 %, 25.29
  Weight (% Change): 0.181%
[4]; desorption, sample RH 50.07 %, 25.3
  Weight (% Change): 0.364%
[4]; desorption, sample RH 70.11 %, 25.30
  Weight (% Change): 0.526%
[4]; sample RH […], 25.46, elapsed 46.6 min (after drying)
  Weight (% Change): 0%

## CCCCCCC(C)(C)c1cc(O)c2c(c1)OC(C)(C)[C@@H]1CC=C(CO)C[C@@H]21 [HU-210]
[5]
  effect on capsaicin-induced hyperalgesia and allodynia: attenuates capsaicin-induced hyperalgesia and allodynia

## O=C(N[C@H]1c2ccccc2C[C@H]1O)c1nn(-c2c[n+]([O-])ccn2)c2c1C[C@@H]1C[C@H]21 [Compound 921, (1aS,5aS)-2-(4-Oxy-pyrazin-2-yl)-1a,2,5,5a-tetrahydro-1H-2,3-diaza-cyclopropa[a]pentalene-4-carboxylic Acid ((1S,2R)-2-Hydroxy-indan-1-yl)-amide]
[1]
  EC50: 2.2 nM

## Cc1c(C(=O)c2cccc3ccccc23)c2cccc3c2n1[C@H](CN1CCOCC1)CO3 [WIN 55212-2]
[3]
  effect against acute and chronic pain: effective against acute and chronic pain

## COc1ccc(C(=O)c2c(C)n(CCN3CCOCC3)c3cc(I)ccc23)cc1 [AM630]
[6]; treatment with CB2-selective antagonist
  effect on the reversal of hypersensitivity by AM1241: inhibited

## CN1CC[C@]23c4c5ccc(O)c4O[C@H]2[C@@H](O)C=C[C@H]3[C@H]1C5 [morphine, reference compound]
[7]; 1 mpk morphine intraperitoneally
  paw withdrawal threshold (PWT), individual values: 4.25 and 8.44 and 5.57 and 5.44 and 4.72 and 2.02

## CN1CCCCC1Cn1cc(C(=O)c2cc([N+](=O)[O-])ccc2I)c2ccccc21 (stereo not drawn) [AM1241]
[6]; local (subcutaneous) or systemic administration
  effect on tactile and thermal hypersensitivity: reverses tactile and thermal hypersensitivity
[8]
  effect on induced hyperalgesia: suppresses hyperalgesia

## COc1ccc2c(c1)c(CCN1CCOCC1)c(C)n2C(=O)c1cccc(Cl)c1Cl [GW405833]
[6]; administered systemically
  effect on hypersensitivity to mechanical stimuli: significantly reverses hypersensitivity to mechanical stimuli

## CCCCC/C=C\C/C=C\C/C=C\C/C=C\CCCC(=O)NCCCl [arachidonyl-2-chloroethylamide]
[9]
  effect on pain: reduces pain

## CCCCCc1cc(O)c2c(c1)OC(C)(C)[C@@H]1CCC(C)=C[C@@H]21 [THC]
[3]
  effect against acute and chronic pain: effective against acute and chronic pain

## CC(C)(C)[C@@H](CO)NC(=O)c1nn(-c2c[n+]([O-])ccn2)c2c1C[C@@H]1C[C@H]21 [Compound 699, (1aS,5aS)-2-(4-Oxy-pyrazin-2-yl)-1a,2,5,5a-tetrahydro-1H-2,3-diaza-cyclopropa[a]pentalene-4-carboxylic Acid ((S)-1-Hydroxymethyl-2,2-dimethyl-propyl)-amide]
[7]; 1 mpk Compound 699 orally
  paw withdrawal threshold (PWT), individual values: 6.66 and 5.56 and 11.69 and 5.54 and 7.80 and 3.58
[7]; 10 mpk Compound 699 orally (positive control)
  paw withdrawal threshold (PWT), individual values: 6.58 g and 7.8 g
[7]; 10 mpk Compound 699 orally (positive control), in g
  paw withdrawal threshold (PWT), individual values: 15.00 (3×) and 11.69
[2]
  analgesic efficacy, tactile allodynia (50% withdrawal threshold): robust and sustained analgesic efficacy over 6 hours

## O=C(NC1(C(F)(F)F)CCC1)c1nn(-c2c[n+]([O-])ccn2)c2c1C[C@@H]1C[C@H]21 [Compound 765, (1aS,5aS)-2-(4-Oxy-pyrazin-2-yl)-1a,2,5,5a-tetrahydro-1H-2,3-diaza-cyclopropa[a]pentalene-4-carboxylic Acid (1-Trifluoromethyl-cyclobutyl)-amide]
[1]
  EC50: 1.1 nM

## CCCCC/C=C\C/C=C\C/C=C\C/C=C\CCCC(=O)NCCO [anandamide]
[3]
  effect against acute and chronic pain: effective against acute and chronic pain
